In this experiment the target is Pin1 (GST-Pin1) (Homo sapiens, UniProt Q13526). In words: Fluorescence polarization (FP) assay, binding to Pin1. The conditions noted are these: competition with fluorescein-labeled peptide probe, 12 hours pre-incubation at 4° C., Kenakin Ki equation. (Polarisation of emitted light reports the rotation of a fluorescent probe.)

Where two headings read alike, the source gives them in different places. Non-standard residues stand in square brackets, D forms with d. Residues, ends and D or L forms follow the SMILES beside them. *: point of attachment. Phe(F5) = N[C@@H](Cc1c(F)c(F)c(F)c(F)c1F)C(=O)O; Phe(3,5-F2) = N[C@@H](Cc1cc(F)cc(F)c1)C(=O)O; Ala(4-thiazolyl) = N[C@@H](Cc1cscn1)C(=O)O; Phe(2-Br) = N[C@@H](Cc1ccccc1Br)C(=O)O; Phe(4-F) = N[C@@H](Cc1ccc(F)cc1)C(=O)O; Bta = N[C@@H](Cc1csc2ccccc12)C(=O)O; NH(4-Me-benzyl) = Cc1ccc(CN*)cc1; 3Thi = N[C@@H](Cc1ccsc1)C(=O)O; Cit = NC(=O)NCCC[C@H](N)C(=O)O; X7 = c1ccc(-c2ccc(N*)cc2)cc1; Pip = O=C(O)[C@@H]1CCCCN1; NHtBu = CC(C)(C)N*; X4 = CN(c1ccccc1)*; ClAc = O=C(CCl)*

Sequence of Pin1 (GST-Pin1) (Q13526 whole entry): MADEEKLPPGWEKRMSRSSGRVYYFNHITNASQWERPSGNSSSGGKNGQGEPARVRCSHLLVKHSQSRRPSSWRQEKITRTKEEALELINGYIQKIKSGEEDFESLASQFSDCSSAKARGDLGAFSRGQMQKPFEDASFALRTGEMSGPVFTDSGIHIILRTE

As to `COC(=O)CC[C@@H](NC(=O)CCl)C(=O)N1CCCC[C@H]1C(=O)N[C@@H](Cc1c[nH]c2ccccc12)C(=O)N[C@@H](Cc1ccc(F)cc1)C(=O)NCc1ccc(C)cc1` [Compound 11-16, Methyl (R)-4-(2-chloroacetamido)-5-((S)-2-(((S)-1-(((S)-3-(4-fluorophenyl)-1-((4-methyl-benzyl)amino)-1-oxopropan-2-yl)amino)-3-(1H-indol-3-yl)-1-oxopropan-2-yl)carbamoyl)-piperidin-1-yl)-5-oxopentanoate] (ClAc-[dE](OMe)[Pip]W[Phe(4-F)]-{NH(4-Me-benzyl)}), the Ki (usually the equilibrium dissociation constant of an inhibitor or competing ligand from its target) (Ki, μM (FP Assay)) is greater than 10 µM.

For `COC(=O)CC[C@H](NC(=O)CCl)C(=O)N1CCCC[C@H]1C(=O)N[C@@H](Cc1c[nH]c2ccccc12)C(=O)N[C@@H](CCCNC(N)=O)C(=O)Nc1ccc(-c2ccccc2)cc1` [Compound 11-17, Methyl (S)-5-((S)-2-(((S)-1-(((S)-1-([1,1′-biphenyl]-4-ylamino)-1-oxo-5-ureidopentan-2-yl)amino)-3-(1H-indol-3-yl)-1-oxopropan-2-yl)carbamoyl)piperidin-1-yl)-4-(2-chloroacetamido)-5-oxopentanoate] (ClAc-E(OMe)[Pip]W[Cit]-X7), the Ki (Ki, μM (FP Assay)) is greater than 10 µM.

Turning to `COC(=O)CC[C@H](NC(=O)CCl)C(=O)N1CCCC[C@H]1C(=O)N[C@@H](Cc1c[nH]c2ccccc12)C(=O)N[C@@H](Cc1ccc(F)cc1)C(=O)N(C)c1ccccc1` [Compound 11-20, Methyl (S)-4-(2-chloroacetamido)-5-((S)-2-(((S)-1-(((S)-3-(4-fluorophenyl)-1-(methyl-(phenyl)amino)-1-oxopropan-2-yl)amino)-3-(1H-indol-3-yl)-1-oxopropan-2-yl)carbamoyl)-piperidin-1-yl)-5-oxopentanoate] (ClAc-E(OMe)[Pip]W[Phe(4-F)]-X4), the Ki (Ki, μM (FP Assay)) was 0.223 µM.

`COC(=O)CC[C@H](NC(=O)CCl)C(=O)N1CCCC[C@H]1C(=O)N[C@@H](Cc1csc2ccccc12)C(=O)N[C@@H](CCCNC(N)=O)C(=O)NCc1ccc(C)cc1` [Compound 11-21, Methyl (S)-5-((S)-2-(((S)-3-(benzo[&]thiophen-3-yl)-1-(((S)-1-((4-methylbenzyl)amino)-1-oxo-5-ureidopentan-2-yl)amino)-1-oxopropan-2-yl)carbamoyl)piperidin-1-yl)-4-(2-chloroacetamido)-5-oxopentanoate] (ClAc-E(OMe)[Pip][Bta][Cit]-{NH(4-Me-benzyl)}) had a Ki (Ki, μM (FP Assay)) of 0.015 µM.

As to `COC(=O)CC[C@H](NC(=O)CCl)C(=O)N1CCCC[C@H]1C(=O)N[C@@H](Cc1csc2ccccc12)C(=O)N[C@@H](Cc1ccc(F)cc1)C(=O)NCc1ccc(C)cc1` [Compound 11-22, Methyl (S)-5-((S)-2-(((S)-3-(benzo[b]thiophen-3-yl)-1-(((S)-3-(4-fluorophenyl)-1-((4-methylbenzyl)amino)-1-oxopropan-2-yl)amino)-1-oxopropan-2-yl)carbamoyl)piperidin-1-yl)-4-(2-chloroacetamido)-5-oxopentanoate] (ClAc-E(OMe)[Pip][Bta][Phe(4-F)]-{NH(4-Me-benzyl)}), for the setting “Ki, μM (FP Assay)”, the inhibitory constant (Ki) was greater than 10 µM.

The compound `COC(=O)CC[C@H](NC(=O)CCl)C(=O)N1CCCC[C@H]1C(=O)N[C@@H](Cc1c[nH]c2ccccc12)C(=O)N[C@@H](Cc1cc(F)cc(F)c1)C(=O)NCc1ccc(C)cc1` [Compound 11-24, Methyl (S)-4-(2-chloroacetamido)-5-((S)-2-(((S)-1-(((S)-3-(3,5-difluorophenyl)-1-((4-methyl-benzyl)amino)-1-oxopropan-2-yl)amino)-3-(1H-indol-3-yl)-1-oxopropan-2-yl)carbamoyl)piperidin-1-yl)-5-oxopentanoate] (ClAc-E(OMe)[Pip]W[Phe(3,5-F2)]-{NH(4-Me-benzyl)}) displayed an inhibitory constant (Ki) (Ki, μM (FP Assay)) greater than 10 µM.

On to `COC(=O)CC[C@H](NC(=O)CCl)C(=O)N1CCCC[C@H]1C(=O)N[C@@H](Cc1c[nH]c2ccccc12)C(=O)N[C@@H](Cc1c(F)c(F)c(F)c(F)c1F)C(=O)NCc1ccc(C)cc1` [Compound 11-25, Methyl (S)-5-((S)-2-(((S)-3-(1H-indol-3-yl)-1-(((S)-1-((4-methylbenzyl)amino)-1-oxo-3-(perfluoro-phenyl)propan-2-yl)amino)-1-oxopropan-2-yl)carbamoyl)piperidin-1-yl)-4-(2-chloroacetamido)-5-oxopentanoate] (ClAc-E(OMe)[Pip]W[Phe(F5)]-{NH(4-Me-benzyl)}), for which, for the setting “Ki, μM (FP Assay)”, the Ki is greater than 10 µM.

In the case of `COC(=O)CC[C@H](NC(=O)CCl)C(=O)N1CCCC[C@H]1C(=O)N[C@@H](Cc1c[nH]c2ccccc12)C(=O)N[C@@H](Cc1ccccc1Br)C(=O)NCc1ccc(C)cc1` [Compound 11-27, Methyl (S)-5-((S)-2-(((S)-1-(((S)-3-(2-bromophenyl)-1-((4-methylbenzyl)amino)-1-oxopropan-2-yl)amino)-3-(1H-indol-3-yl)-1-oxopropan-2-yl)carbamoyl)piperidin-1-yl)-4-(2-chloroacetamido)-5-oxopentanoate] (ClAc-E(OMe)[Pip]W[Phe(2-Br)]-{NH(4-Me-benzyl)}), the Ki (Ki, μM (FP Assay)) is greater than 10 µM.

As to `COC(=O)CC[C@H](NC(=O)CCl)C(=O)N1CCCC[C@H]1C(=O)N[C@@H](Cc1c[nH]c2ccccc12)C(=O)N[C@@H](Cc1ccsc1)C(=O)NCc1ccc(C)cc1` [Compound 11-29, Methyl (S)-5-((S)-2-(((S)-3-(1H-indol-3-yl)-1-(((S)-1-((4-methylbenzyl)amino)-1-oxo-3-(thiophen-3-yl)propan-2-yl)amino)-1-oxopropan-2-yl)carbamoyl)piperidin-1-yl)-4-(2-chloroacetamido)-5-oxopentanoate] (ClAc-E(OMe)[Pip]W[3Thi]-{NH(4-Me-benzyl)}), the Ki (Ki, μM (FP Assay)) stood at 1.01 µM.

As to `COC(=O)CC[C@H](NC(C)=O)C(=O)N1CCCC[C@H]1C(=O)N[C@@H](Cc1c[nH]c2ccccc12)C(=O)N[C@@H](Cc1ccc(F)cc1)C(=O)NCc1ccc(C)cc1` [Compound 11-30, Methyl (S)-4-acetamido-5-((S)-2-(((S)-1-(((S)-3-(4-fluorophenyl)-1-((4-methylbenzyl)-amino)-1-oxopropan-2-yl)amino)-3-(1H-indol-3-yl)-1-oxopropan-2-yl)carbamoyl)piperidin-1-yl)-5-oxopentanoate] (Ac-E(OMe)[Pip]W[Phe(4-F)]-{NH(4-Me-benzyl)}), under “read-out: Ki, μM (FP Assay)”, the Ki is greater than 10 µM.

Consider `CC(C)(C)NC(=O)[C@H](CCCNC(N)=O)NC(=O)[C@H](Cc1c[nH]c2ccccc12)NC(=O)[C@@H]1CCCCN1C(=O)[C@H](Cc1ccccc1)NC(=O)CCl` [Compound 11-31, (S)—N—((S)-1-(((S)-1-(tert-Butylamino)-1-oxo-5-ureidopentan-2-yl)amino)-3-(1H-indol-3-yl)-1-oxopropan-2-yl)-1-((2-chloroacetyl)-L-phenylalanyl)piperidine-2-carboxamide] (ClAc-F[Pip]W[Cit]-NHtBu), for which the Ki (read-out: Ki, μM (FP Assay)) was found to be 0.023 µM.

In the case of `Cc1ccc(CNC(=O)[C@H](Cc2cscn2)NC(=O)[C@H](Cc2c[nH]c3ccccc23)NC(=O)[C@@H]2CCCCN2C(=O)[C@H](Cc2ccccc2)NC(=O)CCl)cc1` [Compound 11-32, (S)—N—((S)-3-(1H-Indol-3-yl)-1-(((S)-1-((4-methylbenzyl)amino)-1-oxo-3-(thiazol-4-yl)propan-2-yl)amino)-1-oxopropan-2-yl)-1-((2-chloroacetyl)-L-phenylalanyl)piperidine-2-carboxamide] (ClAc-F[Pip]W[Ala(4-thiazolyl)]-{NH(4-Me-benzyl)}), under “read-out: Ki, μM (FP Assay)”, the Ki came to 0.121 µM.

(Values after patent publication US20210238225A1, “PEPTIDOMIMETIC INHIBITORS OF THE PEPTIDYL-PROLYL CIS/TRANS ISOMERASE (PIN1)” (DANA-FARBER CANCER INSTITUTE, INC., priority 2018, published 2021).)
